Measured values taken from PubChem BioAssay (NCI).
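These data come from cells grown in 96-well plates and exposed to compound for 48 hours at five concentrations. Abbreviation: GI50, concentration required for 50% inhibition of growth. TGI: concentration producing complete growth inhibition.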

Columns and labels:
Assay in all cases: NCI-60 cell line screen, 48 h
IGROV1 ovarian = tested on: IGROV1 ovarian
SK-MEL-5 melanoma = tested on: SK-MEL-5 melanoma
NCI-H226 lung = tested on: NCI-H226 lung
KM12 colon = tested on: KM12 colon
DU-145 prostate = tested on: DU-145 prostate
HCC-2998 colon = tested on: HCC-2998 colon
UO-31 renal = tested on: UO-31 renal
PC-3 prostate = tested on: PC-3 prostate
LOX IMVI melanoma = tested on: LOX IMVI melanoma
MCF7 breast = tested on: MCF7 breast
NCI-H522 lung = tested on: NCI-H522 lung
MDA-MB-435 = tested on: MDA-MB-435
K-562 leukemia = tested on: K-562 leukemia
OVCAR-4 ovarian = tested on: OVCAR-4 ovarian
SF-539 CNS = tested on: SF-539 CNS
MALME-3M melanoma = tested on: MALME-3M melanoma
SK-OV-3 ovarian = tested on: SK-OV-3 ovarian
NCI-H460 lung = tested on: NCI-H460 lung
SF-295 CNS = tested on: SF-295 CNS
HOP-62 NSCLC = tested on: HOP-62 NSCLC
U251 CNS = tested on: U251 CNS
M14 melanoma = tested on: M14 melanoma
NCI/ADR-RES ovarian = tested on: NCI/ADR-RES ovarian
RXF 393 renal = tested on: RXF 393 renal
EKVX NSCLC = tested on: EKVX NSCLC
SK-MEL-2 melanoma = tested on: SK-MEL-2 melanoma
SNB-75 CNS = tested on: SNB-75 CNS
HCT-15 colon = tested on: HCT-15 colon
A549 NSCLC = tested on: A549 NSCLC
OVCAR-5 ovarian = tested on: OVCAR-5 ovarian
CAKI-1 renal = tested on: CAKI-1 renal
SK-MEL-28 melanoma = tested on: SK-MEL-28 melanoma
UACC-257 melanoma = tested on: UACC-257 melanoma
ACHN renal = tested on: ACHN renal
T-47D breast = tested on: T-47D breast
SR leukemia = tested on: SR leukemia
A498 renal = tested on: A498 renal
HCT-116 colon = tested on: HCT-116 colon
OVCAR-8 ovarian = tested on: OVCAR-8 ovarian
786-0 renal = tested on: 786-0 renal
HT29 colon = tested on: HT29 colon
HOP-92 NSCLC = tested on: HOP-92 NSCLC
CCRF-CEM leukemia = tested on: CCRF-CEM leukemia
SNB-19 CNS = tested on: SNB-19 CNS
SW-620 colon = tested on: SW-620 colon
BT-549 breast = tested on: BT-549 breast
NCI-H23 lung = tested on: NCI-H23 lung
HL-60(TB) leukemia = tested on: HL-60(TB) leukemia
HS 578T breast = tested on: HS 578T breast
OVCAR-3 ovarian = tested on: OVCAR-3 ovarian
UACC-62 melanoma = tested on: UACC-62 melanoma
RPMI-8226 leukemia = tested on: RPMI-8226 leukemia
TK-10 renal = tested on: TK-10 renal
COLO 205 colon = tested on: COLO 205 colon
MDA-MB-231 breast = tested on: MDA-MB-231 breast
SN12C renal = tested on: SN12C renal
SF-268 CNS = tested on: SF-268 CNS

Work on `CC[C@H](CO)Nc1nc(NCc2ccccc2)c2ncn(C(C)C)c2n1` yielded a GI50 (IGROV1 ovarian) of 11.9 µM, a TGI (IGROV1 ovarian) greater than 86.2 µM and a TGI (SK-MEL-5 melanoma) of 35.5 µM. It also gave a TGI (NCI-H226 lung) greater than 93.7 µM, a GI50 (KM12 colon) of 10.6 µM and a TGI (KM12 colon) of 60.2 µM. For the same compound, the GI50 (DU-145 prostate) was 19.9 µM, the TGI (DU-145 prostate) was greater than 100 µM and the GI50 (HCC-2998 colon) was 24.7 µM. The TGI (HCC-2998 colon) was greater than 75.2 µM, the GI50 (UO-31 renal) was 16.7 µM and the TGI (UO-31 renal) was 96.9 µM. The TGI (PC-3 prostate) was 70 µM, the TGI (LOX IMVI melanoma) was greater than 84.1 µM and the TGI (MCF7 breast) was greater than 81.5 µM. The TGI (NCI-H522 lung) was 57.8 µM, the GI50 (MDA-MB-435) was 20.1 µM and the TGI (MDA-MB-435) was greater than 73.6 µM. It also gave a GI50 (K-562 leukemia) of 40.3 µM, a TGI (K-562 leukemia) greater than 100 µM and a GI50 (OVCAR-4 ovarian) of 26.8 µM. The TGI (OVCAR-4 ovarian) was greater than 88.5 µM, the TGI (SF-539 CNS) was 53.6 µM and the TGI (MALME-3M melanoma) was 50 µM. For the same compound, the TGI (SK-OV-3 ovarian) was greater than 100 µM, the TGI (NCI-H460 lung) was greater than 100 µM and the GI50 (SF-295 CNS) was 21.8 µM. The TGI (SF-295 CNS) was greater than 79.6 µM, the GI50 (HOP-62 NSCLC) was 29.4 µM and the TGI (HOP-62 NSCLC) was greater than 94 µM. It also gave a GI50 (U251 CNS) of 40 µM, a TGI (U251 CNS) greater than 100 µM and a GI50 (M14 melanoma) of 31.6 µM. For the same compound, the TGI (M14 melanoma) was greater than 100 µM, the GI50 (NCI/ADR-RES ovarian) was 10.9 µM and the TGI (NCI/ADR-RES ovarian) was 56.6 µM. For the same compound, the TGI (RXF 393 renal) was greater than 52.4 µM, the TGI (EKVX NSCLC) was 44.1 µM and the TGI (SK-MEL-2 melanoma) was 44.6 µM. The TGI (SNB-75 CNS) was 30.6 µM, the TGI (HCT-15 colon) was greater than 81.6 µM and the GI50 (A549 NSCLC) was 20.1 µM. The TGI (A549 NSCLC) was greater than 100 µM, the GI50 (OVCAR-5 ovarian) was 28 µM and the TGI (OVCAR-5 ovarian) was greater than 96.4 µM. The GI50 (CAKI-1 renal) was 10.9 µM, the TGI (CAKI-1 renal) was greater than 100 µM and the GI50 (SK-MEL-28 melanoma) was 21.5 µM. It also gave a TGI (SK-MEL-28 melanoma) of 74.9 µM, a TGI (UACC-257 melanoma) of 98.7 µM and a GI50 (ACHN renal) of 16.4 µM. It also gave a TGI (ACHN renal) greater than 85.9 µM, a GI50 (T-47D breast) of 21.7 µM and a TGI (T-47D breast) greater than 84.2 µM. It also gave a TGI (SR leukemia) greater than 79.8 µM, a GI50 (A498 renal) of 30.1 µM and a TGI (A498 renal) greater than 88.7 µM. For the same compound, the GI50 (HCT-116 colon) was 11.1 µM, the TGI (HCT-116 colon) was greater than 100 µM and the GI50 (OVCAR-8 ovarian) was 29.3 µM. The TGI (OVCAR-8 ovarian) was greater than 100 µM, the GI50 (786-0 renal) was 31.9 µM and the TGI (786-0 renal) was greater than 100 µM. It also gave a GI50 (HT29 colon) of 24.3 µM, a TGI (HT29 colon) greater than 100 µM and a GI50 (HOP-92 NSCLC) of 28.1 µM. The TGI (HOP-92 NSCLC) was greater than 90.7 µM, the GI50 (CCRF-CEM leukemia) was greater than 50.6 µM and the TGI (CCRF-CEM leukemia) was greater than 100 µM. For the same compound, the GI50 (SNB-19 CNS) was 26.4 µM, the TGI (SNB-19 CNS) was greater than 100 µM and the GI50 (SW-620 colon) was 49.3 µM. It also gave a TGI (SW-620 colon) greater than 100 µM, a TGI (BT-549 breast) of 45.3 µM and a TGI (NCI-H23 lung) of 41.9 µM. The TGI (HL-60(TB) leukemia) was greater than 79.9 µM, the GI50 (HS 578T breast) was 20.8 µM and the TGI (HS 578T breast) was 68.2 µM. For the same compound, the GI50 (OVCAR-3 ovarian) was 12.9 µM, the TGI (OVCAR-3 ovarian) was greater than 67.4 µM and the GI50 (UACC-62 melanoma) was 10.5 µM. For the same compound, the TGI (UACC-62 melanoma) was 34 µM, the TGI (RPMI-8226 leukemia) was greater than 77.8 µM and the GI50 (TK-10 renal) was 44.9 µM. The TGI (TK-10 renal) was greater than 100 µM, the TGI (COLO 205 colon) was 36.6 µM and the GI50 (MDA-MB-231 breast) was 32.2 µM. The TGI (MDA-MB-231 breast) was greater than 100 µM, the GI50 (SN12C renal) was 27 µM and the TGI (SN12C renal) was greater than 100 µM. The TGI (SF-268 CNS) was greater than 75.1 µM.
